Experimental data published in the supplement of paper PMC10307832.

Experiments:
Assay in all cases: relative viability (nuclei count vs DMSO), 5 days (fraction); higher = more cells survive
[1] = compound: CC1=C(N=C(N=C1N)[C@H](CC(=O)N)NC[C@@H](C(=O)N)N)C(=O)N[C@@H]([C@H](C2=CN=CN2)OC3C(C(C(C(O3)CO)O)O)OC4C(C(C(C(O4)CO)O)OC(=O)N)O)C(=O)N[C@H](C)[C@H]([C@H](C)C(=O)N[C@@H]([C@@H](C)O)C(=O)NCCC5=NC(=CS5)C6=NC(=CS6)C(=O)NCCC[S+](C)C)O [Bleomycin] + O=C(CCCCCCC(=O)Nc1ccccc1)NO [Vorinostat] (partner 1 µM); conditions: main component drawn
Method in brief: (§1)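 Lung cancer cell lines, seeded in 1536-well plates, were treated the following day by pin tool with a single drug or with five library-drug doses (not always all listed) in √10 steps on top of a fixed anchor-drug dose. Cells were fixed and nuclei stained in one step after 5 days, and nuclei were counted. Relative viability is the nuclei count for treated wells divided by that for vehicle wells, reported as medians of duplicate plates.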

[2] = compound: COc1cc([C@@H]2c3cc4c(cc3[C@@H](O[C@@H]3O[C@@H]5CO[C@@H](C)O[C@H]5[C@H](O)[C@H]3O)[C@H]3COC(=O)[C@H]23)OCO4)cc(OC)c1O [Etoposide] + Cc1nc(NC(=O)N2CCC[C@H]2C(N)=O)sc1-c1ccnc(C(C)(C)C(F)(F)F)c1 [Alpelisib] (partner 2 µM)
Method in brief: as §1

[3] = compound: CC1=C(N=C(N=C1N)[C@H](CC(=O)N)NC[C@@H](C(=O)N)N)C(=O)N[C@@H]([C@H](C2=CN=CN2)OC3C(C(C(C(O3)CO)O)O)OC4C(C(C(C(O4)CO)O)OC(=O)N)O)C(=O)N[C@H](C)[C@H]([C@H](C)C(=O)N[C@@H]([C@@H](C)O)C(=O)NCCC5=NC(=CS5)C6=NC(=CS6)C(=O)NCCC[S+](C)C)O [Bleomycin] + Nc1ncn([C@H]2C[C@H](O)[C@@H](CO)O2)c(=O)n1 [Decitabine] (partner 2 µM); conditions: main component drawn
Method in brief: as §1

[4] = compound: COc1cc([C@@H]2c3cc4c(cc3[C@@H](O[C@@H]3O[C@@H]5CO[C@@H](C)O[C@H]5[C@H](O)[C@H]3O)[C@H]3COC(=O)[C@H]23)OCO4)cc(OC)c1O [Etoposide] + CS(=O)(=O)CCNCc1ccc(-c2ccc3ncnc(Nc4ccc(OCc5cccc(F)c5)c(Cl)c4)c3c2)o1 [Lapatinib] (partner 2 µM)
Method in brief: as §1

| Cell Line | relative viability ([1]; first compound 0.01 µM) | relative viability ([1]; first compound 0.03162 µM) | relative viability ([1]; first compound 0.1 µM) | relative viability ([1]; first compound 0.3162 µM) | relative viability ([1]; first compound 1 µM) | relative viability ([2]; first compound 0.01 µM) | relative viability ([2]; first compound 0.03162 µM) | relative viability ([2]; first compound 0.1 µM) | relative viability ([2]; first compound 0.3162 µM) | relative viability ([2]; first compound 1 µM) | relative viability ([3]; first compound 0.01 µM) | relative viability ([3]; first compound 0.03162 µM) | relative viability ([3]; first compound 0.1 µM) | relative viability ([3]; first compound 0.3162 µM) | relative viability ([3]; first compound 1 µM) | relative viability ([4]; first compound 0.01 µM) | relative viability ([4]; first compound 0.03162 µM) | relative viability ([4]; first compound 0.1 µM) | relative viability ([4]; first compound 0.3162 µM) | relative viability ([4]; first compound 1 µM) |
| --- | --- | --- | --- | --- | --- | --- | --- | --- | --- | --- | --- | --- | --- | --- | --- | --- | --- | --- | --- | --- |
| HCC-44 | 0.906 | 0.989 | 0.733 | 0.459 | 0.383 | 0.635 | 0.89 | 0.857 | 0.569 | 0.323 | 0.773 | 0.795 | 0.693 | 0.396 | 0.407 | 0.989 | 0.953 | 1.06 | 0.833 | 0.245 |
| HCC-78 | 0.388 | 0.362 | 0.487 | 0.399 | 0.391 | 0.316 | 0.354 | 0.212 | 0.213 | 0.161 | 0.624 | 0.702 | 0.639 | 0.645 | 0.423 | 1.03 | 0.836 | 0.206 | 0.134 | 0.202 |
| HCC-366 | 0.115 | 0.135 | 0.0903 | 0.0328 | 0.0275 | 0.305 | 0.39 | 0.333 | 0.162 | 0.0382 | 0.242 | 0.26 | 0.132 | 0.069 | 0.0541 | 0.978 | 0.882 | 0.382 | 0.0593 | 0.0394 |
| HCC-827 | 0.857 | – | 0.736 | 0.585 | 0.207 | 0.967 | 0.912 | 0.696 | 0.453 | 0.18 | 0.304 | – | 0.287 | 0.249 | 0.198 | 0.172 | 0.262 | 0.205 | 0.208 | 0.134 |
| HOP-62 | 0.277 | 0.277 | 0.179 | 0.102 | 0.0753 | 0.995 | 1.25 | 0.518 | 0.663 | 0.294 | 0.157 | 0.197 | 0.137 | 0.154 | 0.118 | 0.973 | 1.05 | 0.833 | 0.533 | 0.187 |
| IA-LM | 0.791 | 0.802 | 0.801 | 0.398 | 0.635 | 0.773 | 0.815 | 0.477 | 0.645 | 0.552 | – | – | – | – | – | 0.704 | 0.614 | 0.78 | 0.666 | 0.301 |
| LC-2-ad | 0.62 | 0.609 | 0.466 | 0.236 | 0.2 | 0.888 | 0.911 | 0.846 | 0.532 | 0.172 | 0.72 | 0.737 | 0.541 | 0.309 | 0.292 | 0.867 | 0.961 | 0.906 | 0.649 | 0.154 |
| LCLC-103H | 0.678 | 0.625 | 0.704 | 0.654 | 0.417 | 1.02 | 1.12 | 0.774 | 0.973 | 0.703 | 0.676 | 0.68 | 0.677 | 0.721 | 0.537 | – | – | – | – | – |
| NCI-H441 | 0.646 | 0.546 | 0.686 | 0.453 | 0.312 | 0.473 | 0.722 | 0.362 | 0.16 | 0.174 | 0.233 | 0.238 | 0.221 | 0.217 | 0.224 | – | – | – | – | – |
| NCI-H522 | 0.979 | 0.911 | 0.739 | 0.525 | 0.374 | – | – | – | – | – | 0.736 | 0.777 | 0.608 | 0.405 | 0.399 | – | – | – | – | – |
| NCI-H1299 | – | – | – | – | – | 1.04 | 1.04 | 1.14 | 1.02 | 0.872 | – | – | – | – | – | 0.952 | 0.983 | 1.03 | 0.776 | 0.817 |
| NCI-H1563 | – | – | – | – | – | 0.855 | 0.918 | 0.868 | 0.588 | 0.557 | – | – | – | – | – | 0.935 | 0.868 | 0.817 | 0.646 | 0.526 |
| NCI-H1648 | 0.46 | 0.324 | 0.275 | 0.257 | 0.271 | – | – | – | – | – | 0.412 | 0.387 | 0.466 | 0.467 | 0.334 | – | – | – | – | – |
| NCI-H1650 | 0.36 | 0.241 | 0.22 | 0.146 | 0.169 | – | – | – | – | – | 0.295 | 0.253 | 0.163 | 0.184 | 0.146 | 0.696 | 0.781 | 0.479 | 0.217 | 0.144 |
| NCI-H1703 | – | – | – | – | – | 0.406 | 0.367 | 0.31 | 0.287 | 0.255 | – | – | – | – | – | – | 1.14 | 0.866 | 0.376 | 0.271 |
| NCI-H1792 | – | – | – | – | – | 0.61 | 0.415 | 0.374 | 0.549 | 0.302 | 0.521 | 0.649 | 0.558 | 0.3 | 0.252 | 0.939 | 0.832 | 0.883 | 0.798 | 0.595 |
| NCI-H2228 | 0.637 | 0.557 | 0.486 | 0.17 | 0.22 | 0.864 | 1.01 | 0.713 | 0.442 | 0.224 | – | – | – | – | – | 0.84 | 1.05 | 0.846 | 0.703 | 0.138 |
| NCI-H2342 | 0.786 | 0.735 | 0.652 | 0.551 | 0.491 | – | – | – | – | – | 0.692 | 0.624 | 0.619 | 0.547 | 0.556 | – | – | – | – | – |
| SW 900 | 0.403 | 0.513 | 0.427 | 0.207 | 0.217 | – | – | – | – | – | 0.377 | 0.406 | 0.334 | 0.234 | 0.244 | – | – | – | – | – |
